Measured values reported in patent US8628752B2, “Methods of identifying HSP90 inhibitors with less ocular toxicity” (Synta Pharmaceuticals Corp., priority 2011, dated 2014).
Where “and” joins values, the source holds several entries; their conditions need not be identical. Equal entries are not always repeated. Entries after “also recorded” stand apart in the source; their conditions may differ. Where two headings read alike, the source gives them in different places.

Legend:
photoreceptors [1] = details: rat, in vivo, iv; for Incidences (#affected/total): male, Sprague-Dawley, 2 days
HER2 in BT-474 cells = assay: HER2 degradation assay (anti-HER2 FITC flow cytometry); format: cell-based; details: 24 h treatment
Experimental: HER2 positive cells were determined using anti-HER2 conjugated FITC (BD, 540553) according to manufacturer's instruction (BD Biosciences). 0.2×10^6 BT-474 cells were plated in 12-well culture plates in Dulbecco's Modified Eagle's Medium containing 10% fetal bovine serum and 1.5 g/L sodium bicarbonate. Cells were treated with the indicated compounds over a 10-1000 nM concentration range for 24 h. Cells were collected and stained with a FITC-conjugated anti-HER2 antibody for 30 min at room temperature. HER2-positive cells (fluorescence intensity) were determined by flow cytometry (excitation at 495 nm and emission at 529 nm) using a Becton Dickinson LSRII equipped with CellQuest Pro software. […]

[2] = for Elimination from the retina (in words) / Retina/plasma (R/P) ratio (in words): rats; for Retina/plasma (R/P) ratio (in words): 6 h post-dose
in vivo [3] = details: male, Sprague-Dawley, rat, iv; for Kp at 0.5 h / Kp at 6 h: in vivo
in vivo [4] = details: male, Sprague-Dawley, rat, iv
photoreceptors [5] = assay: Photoreceptor degeneration/apoptosis in rat eyes (H&E, TUNEL) after i.v. dosing; details: for Photoreceptor degeneration (in words) / Ocular toxicity / photoreceptor injury in rats (in words): rats; for Ocular toxicity / photoreceptor injury in rats (in words): short-term studies
[6] = phase I trials, clinical reports, cited from earlier work
retina [7] = assay: Ganetespib 3-month toxicology study, ocular histopathology; format: in vivo; details: SD rats (M + F), max. dose 100 mg/kg, 1 hour i.v. infusion, Days 1 & 15 of four 21-day cycles
retina [8] = assay: as above; format: in vivo, cynomolgus monkeys; details: Monkeys (M + F), max. dose 7 mg/kg, 1 hour i.v. infusion, Days 1 & 15 of four 21-day cycles
[9] = Ocular adverse events in clinical studies with ganetespib; format: in vivo, humans
retina [10] = details: repeated doses; cited from earlier work
[11] = SD rats, all testing doses of the compound, i.v.
[12] = male, Sprague-Dawley, rat, in vivo, iv, 2 days
[13] = male, Sprague-Dawley, rat, in vivo, iv
[14] = male, Sprague-Dawley, rat, in vivo, iv, 0.5 h
[15] = male, Sprague-Dawley, rat, in vivo, iv, 6 h
[16] = SD rats, i.v., between 0.5 and 6 h post-dose
[17] = SD rats, i.v., Day 2, 0.5 h, mg/kg: AUY922 10, 17-DMAG 20, Compound 1 50, 17-AAG 80
[18] = SD rats, i.v., Day 2, 6 h, mg/kg: AUY922 10, 17-DMAG 20, Compound 1 50, 17-AAG 80
[19] = SD rats, 8, 20, 60, 100/80 mg/kg/d x2, i.v.

CC(C)c1cc(C(=O)N2Cc3ccc(CN4CCN(C)CC4)cc3C2)c(O)cc1O [AT-13387]
Incidences (#affected/total) (photoreceptors [1]; 3 mg/kg/day): 6/6 | Incidences (#affected/total) (photoreceptors [1]; 30 mg/kg/day): 0/3 | Incidences (#affected/total) (photoreceptors [1]; 60 mg/kg/day): 2/3 | Mortality (in-house study) [11]: 0/9 | Other findings (in-house study) [12]: ↓ Body weight gain

CCNC(=O)c1noc(-c2cc(C(C)C)c(O)cc2O)c1-c1ccc(CN2CCOCC2)cc1 [AUY-922]
IC50 (HER2 in BT-474 cells): < 0.03 µM | IC50 (HER2 in BT-474 cells; Homo sapiens, BT-474, 24 h): 0.03 µM | Incidences (#affected/total) (photoreceptors [1]; 3 mg/kg/day): 0/3 | Incidences (#affected/total) (photoreceptors [1]; 60 mg/kg/day): 3/3 | Ocular toxicity / photoreceptor injury in rats (in words) (photoreceptors [1]): most severe ocular effects | TUNEL (photoreceptors [1]): +-++ | Toxicity: mortality (SD rats, 3-60 mg/kg i.v., in 2-3 days post-dose): No mortality | Mortality (in-house study) [11]: 0/12 | Other findings (in-house study) [12]: tail edema | Other findings (in-house study) (rat, in vivo, iv): ↓ Body weight gain) | Retina % remain at 6 h of drug present at 0.5 h [2, 13]: (53.5) % | Retina %↓ 0.5-6 h (drug eliminated from retina) [2, 13]: 46.5% | Plasma concentration [2, 14]: 1.12 µM | Retina concentration [2, 14]: 4.75 µM | Plasma concentration [2, 15]: 0.0154 µM | Retina concentration [2, 15]: 2.54 µM | Kp at 0.5 h (in vivo [3]): 4.24 | Kp at 6 h (in vivo [3]): 165

CC(C)c1cc(-c2nnc(S)n2-c2ccc3c(ccn3C)c2)c(O)cc1O [Compound 1, 4-isopropyl-6-(5-mercapto-4-(1-methyl-1H-indol-5-yl)-4H-1,2,4-triazol-3-yl)benzene-1,3-diol]
IC50 (HER2 in BT-474 cells; Homo sapiens, BT-474, 24 h): 0.06 µM | Mortality (in-house study) [12]: 0/15 | Other findings (in-house study) (rat, in vivo, 100 mg/kg): (ECG change | Retina %↓ 0.5-6 h (drug eliminated from retina) [2, 16]: 78.5% | Retina %↓ 0.5-6 h (drug eliminated from retina) ([2]; SD rats, i.v., between 0.5 and 6 h post-dose, listed as compound 1): 79% | MTD (in vivo [4]): 100 mg/kg | concentration at 0.5 h (in vivo [3]; cerebrospinal fluid): 0.0194 µM | concentration at 0.5 h (in vivo [3]; plasma): 19.5 µM | concentration at 6 h (in vivo [3]; plasma): 0.104 µM | concentration at 0.5 h (in vivo [3]; retina): 10.4 µM | concentration at 6 h (in vivo [3]; retina): 2.24 µM | Incidences (#affected/total) (photoreceptors [5]; SD rats, 10 mg/kg/d x2, i.v.): 0/3 | Severity (TUNEL + area & density) (photoreceptors [5]; SD rats, 10 mg/kg/d x2, i.v.): (−) ((−) ≦ 20 cells/section) | Incidences (#affected/total) (photoreceptors [5]; SD rats, 20 mg/kg/d x2, i.v.): 0/3 | Severity (TUNEL + area & density) (photoreceptors [5]; SD rats, 20 mg/kg/d x2, i.v.): (−) ((−) ≦ 20 cells/section) | Incidences (#affected/total) (photoreceptors [5]; SD rats, 30 mg/kg/d x2, i.v.): 0/3 | Severity (TUNEL + area & density) (photoreceptors [5]; SD rats, 30 mg/kg/d x2, i.v.): (−) (1/3±, 22 ((−) ≦ 20 cells/section) | Photoreceptor degeneration/apoptosis (photoreceptors [5]; SD rats, 50 mg/kg i.v.): (±) | Incidences (#affected/total) (photoreceptors [5]; SD rats, 50 mg/kg/d x2, i.v.): 3/3 | Severity (TUNEL + area & density) (photoreceptors [5]; SD rats, 50 mg/kg/d x2, i.v.): (±) ((±) 21-30 cells/section) | Incidences (#affected/total) (photoreceptors [5]; SD rats, 100 mg/kg/d x2, i.v.): 3/3 | Photoreceptor degeneration/apoptosis (photoreceptors [5]; SD rats, 10, 20, 30 mg/kg i.v.): (−) ((−) ≦20 cells/section) | Photoreceptor degeneration (in words) (photoreceptors [5]; doses active in animal tumor models): Photoreceptor degeneration was not observed | Photoreceptor degeneration (in words) (photoreceptors [5]; higher dose(s)): only minimal degeneration; also recorded: only minimal-mild changes | Ocular toxicity / photoreceptor injury in rats (in words) (photoreceptors [5]; i.v.): Mild or no ocular toxicity

C=CCNC1=C2C[C@@H](C)C[C@H](OC)[C@H](O)[C@@H](C)/C=C(\C)[C@H](OC(N)=O)[C@@H](OC)/C=C\C=C(/C)C(=O)NC(=CC1=O)C2=O [Compound 17-AAG]
IC50 (HER2 in BT-474 cells): 0.1 to 0.15 µM | Mortality (in-house study) (SD rats, 100 mg/kg in 5 min): 1/3; 100 mg/kg in 5 min, | Mortality (in-house study) (SD rats, 120 mg/kg in 5 min): 1/1: 120 mg/kg in 5 min. | Toxicity: Mortality (dose) (SD rats, i.v.): 100 mg/kg | CSF concentration [2, 17]: 0.434 µM | Plasma concentration [2, 17]: 26.5 µM | R/P ratio (retina/plasma) [2, 17]: 1.70 | Retina concentration [2, 17]: 45.1 µM | CSF concentration [2, 18]: 0.00433 µM | Plasma concentration [2, 18]: 0.262 µM | R/P ratio (retina/plasma) [2, 18]: 9.58 | Retina concentration [2, 18]: 2.51 µM | Retina % remain at 6 h of drug present at 0.5 h [2, 16]: (5.6) % | Retina %↓ 0.5-6 h (drug eliminated from retina) [2, 16]: 94% and 94.4% | Elimination from the retina (in words) [2]: more rapidly eliminated from the retina | Retina/plasma (R/P) ratio (in words) [2]: lower R/P ratios; also recorded: low R/P ratio | Visual adverse effects in clinical trials / clinical subjects [6]: absence of clinically-reported visual changes | Photoreceptor degeneration/apoptosis (photoreceptors [5]; SD rats, 8, 20, 60 mg/kg i.v.): (−) ((−) ≦20 cells/section) | Incidences (#affected/total) (photoreceptors [5]; [19]): 0/10 | Severity (TUNEL + area & density) (photoreceptors [5]; [19]): (−) ((−) ≦ 20 cells/section) | Photoreceptor degeneration/apoptosis (photoreceptors [5]; SD rats, 80 (100) mg/kg i.v.): (−) ((−) ≦20 cells/section) | TUNEL (photoreceptors [5]; SD rats, i.v., mg/kg: AUY922 10, 17-DMAG 20, Compound 1 50, 17-AAG 80): (−) ((−) ≦ 20 cells/section) | Ocular toxicity / photoreceptor injury in rats (in words) (photoreceptors [5]; i.v.): Mild or no ocular toxicity; also recorded: absence of ocular effects; also recorded: did not produce detectable photoreceptor injury; also recorded: did not induce ocular toxicity in rats

CO[C@H]1/C=C\C=C(/C)C(=O)NC2=CC(=O)C(NCCN(C)C)=C(C[C@@H](C)C[C@H](OC)[C@H](O)[C@@H](C)/C=C(\C)[C@@H]1OC(N)=O)C2=O [Compound 17-DMAG]
IC50 (HER2 in BT-474 cells; Homo sapiens): 0.06 µM | Mortality (in-house study) (SD rats, 25 mg/kg/d x3, 72 hrs): 3/3 @ 25 | Toxicity: Mortality (dose) (SD rats, i.v., x 3 days): 25 mg/kg/dx | CSF concentration [2, 17]: 0.0799 µM | Plasma concentration [2, 17]: 4.71 µM | Retina concentration [2, 17]: 32.0 µM | CSF concentration [2, 18]: 0.00376 µM | Plasma concentration [2, 18]: 0.317 µM | Retina concentration [2, 18]: 16.2 µM | Retina %↓ 0.5-6 h (drug eliminated from retina) [2, 16]: 49.4% | Elimination from the retina (in words) [2]: longer retention time; also recorded: slow elimination rate | Retina/plasma (R/P) ratio (in words) [2]: high retina/plasma (R/P) ratio | Visual adverse effects in clinical trials / clinical subjects ([6]; listed as alvespimycin): Visual symptoms, including blurred vision | Kp at 0.5 h (in vivo [3]): 6.79 | Kp at 6 h (in vivo [3]): 51.1 | Incidences (#affected/total) (photoreceptors [5]; SD rats, 10 mg/kg/d x2, i.v.): 3/3 | Incidences (#affected/total) (photoreceptors [5]; SD rats, 20, 25 mg/kg/d x2, i.v.): 6/6 | Ocular toxicity / photoreceptor injury in rats (in words) (photoreceptors [5]; i.v.): marked photoreceptor cell death; also recorded: produced ocular toxicity

CC(C)c1cc(-c2n[nH]c(=O)n2-c2ccc3c(ccn3C)c2)c(O)cc1O [Ganetespib, 3-(2,4-dihydroxy-5-isopropyl-phenyl)-4-(1-methyl-indol-5-yl)-5-hydroxy-[1,2,4]triazole]
IC50 (HER2 in BT-474 cells; Homo sapiens, BT-474, 24 h): 0.03 µM | Ocular histopathology evaluation (retina [7]): No changes | Ocular histopathology evaluation (retina [8]): No changes | Severity of ocular toxicities in clinical studies (in words) ([9]; clinical studies with ganetespib): absence of severe common ocular toxicities | Chromatopsia, all adverse events, Grade 1 ([9]; n = 390, number (%)): 1 (<1%) | Chromatopsia, related adverse events, Grade 1 ([9]; n = 390, number (%)): 1 (<1%) | Difficulty with night vision, all adverse events, Grade 1 ([9]; n = 390, number (%)): 1 (<1%) | Vision blurred, all adverse events, Grade 1 ([9]; n = 390, number (%)): 11 (3%) | Vision blurred, all adverse events, Grade 2 ([9]; n = 390, number (%)): 2 (<1%) | Vision blurred, related adverse events, Grade 1 ([9]; n = 390, number (%)): 4 (1%) | Visual acuity reduced, all adverse events, Grade 1 ([9]; n = 390, number (%)): 2 (<1%) | Visual acuity reduced, related adverse events, Grade 1 ([9]; n = 390, number (%)): 1 (<1%) | Visual impairment, all adverse events, Grade 1 ([9]; n = 390, number (%)): 5 (1%) | Visual impairment, related adverse events, Grade 1 ([9]; n = 390, number (%)): 2 (<1%) | Toxicity: exposure compared with human dose ([2]; SD rats, 20 mg/kg i.v., Cmax & AUCt > human dose): Cmax & AUCt > | Elimination from the retina (in words) [2]: more rapidly eliminated from the retina | Retina/plasma (R/P) ratio (in words) [2]: lower R/P ratios | Photoreceptor degeneration/apoptosis (photoreceptors [5]; SD rats, 20 mg/kg i.v.): (−) ((−) ≦20 cells/section) | Ocular toxicity / photoreceptor injury in rats (in words) (photoreceptors [5]; i.v.): absence of ocular effects; also recorded: did not induce ocular toxicity

CC1(C)CC(=O)c2c(C(F)(F)F)nn(-c3ccc(C(N)=O)c(N[C@H]4CC[C@H](OC(=O)CN)CC4)c3)c2C1 [PF-04929113]
Retinal injury in dogs (retina [10]): photoreceptor degeneration and/or cell death
